In US12139475B2, “2-oxindole compounds” (CHEMOCENTRYX, INC., priority 2016, dated 2024):

The molecules below were run against T1, CCR(9) (Homo sapiens, UniProt P51686) (assay: Serum chemotaxis assay (MOLT-4 cells, TECK-induced migration, ChemoTX)). Conditions: MOLT-4 cells in human serum, migration to recombinant human TECK, 90 minutes at 37° C.
T1 construct: MOLT-4 cells were collected by centrifugation at 400×g at room temperature, then suspended at 50 million/ml in human serum; host or cells: MOLT-4
T1 sequence (P51686 1-369): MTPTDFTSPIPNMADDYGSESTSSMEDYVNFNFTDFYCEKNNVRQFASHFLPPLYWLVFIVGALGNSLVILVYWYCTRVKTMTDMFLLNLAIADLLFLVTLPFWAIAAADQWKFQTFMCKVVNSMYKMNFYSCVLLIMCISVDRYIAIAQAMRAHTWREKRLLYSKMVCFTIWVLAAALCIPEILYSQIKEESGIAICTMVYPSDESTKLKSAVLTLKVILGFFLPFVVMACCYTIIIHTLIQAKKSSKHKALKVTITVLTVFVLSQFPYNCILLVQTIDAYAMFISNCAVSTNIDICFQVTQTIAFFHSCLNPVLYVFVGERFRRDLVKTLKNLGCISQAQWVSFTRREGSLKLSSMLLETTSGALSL
Format: cell-based
Description: MOLT-4 cells were obtained from the American Type Culture Collection (Manassas, VA) and cultured in RPMI tissue culture medium supplemented with 10% fetal calf serum (FCS) in a humidified 5% CO2 incubator at 37° C. Recombinant human chemokine proteins TECK was obtained from R&D Systems (Minneapolis, MN). ChemoTX™ chemotaxis microchambers were purchased from Neuro Probe (Gaithersburg, MD). CyQUANT™ cell proliferation kits were purchased from Molecular Probes (Eugene, Oregon). Calcium indicator dye Fluo-4 AM was purchased from Molecular Devices (Mountain View, CA).
A serum chemotaxis assay was used to determine the efficacy of potential receptor antagonists at blocking the migration mediated through chemokine receptors, such as CCR(9). This assay was performed using the ChemoTX® microchamber system with a 5-μm pore-sized polycarbonate membrane. MOLT-4 cells were collected by centrifugation at 400×g at room temperature, then suspended at 50 million/ml in human serum, containing 50 mM HEPES (final pH of 7.2). The compound being tested or an equivalent volume of its solvent (DMSO) was then added to the cell/serum mixture at a final DMSO concentration of 0.125% (v/v), and this mixture was then incubated together at 37° C. for one hour. Separately, recombinant human TECK was diluted with chemotaxis buffer (HBSS+0.1% BSA), generally spanning a range from 0.1 nM to 500 nM, after which 29 μl of diluted chemokine was placed in the lower wells of the ChemoTX® plate. The 5-μm (pore size) polycarbonate membrane was placed onto the plate, and 20 μL of the cell/compound mixture was transferred onto each well of the membrane. The plates were incubated at 37° C. for 90 minutes, after which the polycarbonate membranes were removed and 5 μl of the DNA-intercalating agent CyQUANT (Invitrogen, Carlsbad, CA) was added to the lower wells. The amount of fluorescence, corresponding to the number of migrated cells, was measured using a Spectrafluor Plus plate reader (TECAN, San Jose, CA).
The A2 values were calculated from the following equation, comparing the efficacy of the test compound with that of the DMSO-only control at equi-active chemokine levels: Log(A2)=log[drug(M)]−log[(A′/A)−1] where A reflects the potency of the agonist in the absence of antagonist and A′ reflects the potency of the agonist in the presence of antagonist at a given concentration of drug ([drug(M)]). In Vivo Efficacy Models for Human IBD

Structure (SMILES) | Chemotaxis A2
Cc1ccc2c(c1)N(c1ccc(C(=O)O)cc1)C(=O)C2(C)c1ccc(C(C)(C)C)cc1 (stereo not shown) | ++ (500 nM > A2 ≥ 100 nM)
CC(C)(C)c1ccc(C2(C)C(=O)N(c3ccc(C(=O)O)cc3)c3ccc(Cl)cc32)cc1 (stereo not shown) | +++ (100 nM > A2)
CC(C)(C)c1ccc(C2(C)C(=O)N(c3cccc(C(=O)O)c3)c3cc(Cl)ccc32)cc1 (stereo not shown) | ++ (500 nM > A2 ≥ 100 nM)
Cc1cc(C(C)(C)C)ccc1C1(C)C(=O)N(c2cccc(C(=O)O)c2)c2ccc(Cl)cc21 (stereo not shown) | +++ (100 nM > A2)
CC(C)Oc1ccc(C2(C)C(=O)N(c3cccc(C(=O)O)c3)c3ccc(Cl)cc32)cc1 (stereo not shown) | +++ (100 nM > A2)
CC(C)(C)c1ccc(C2(C)C(=O)N(c3cccc(C(=O)O)c3)c3c(Cl)cc(Cl)cc32)cc1 (stereo not shown) | + (20000 nM ≥ A2 ≥ 500 nM)
CC(C)(C)c1ccc(C2(C)C(=O)N(c3ccccc3C(=O)O)c3ccc(Cl)cc32)cc1 (stereo not shown) | ++ (500 nM > A2 ≥ 100 nM)
Cc1ccc2c(c1)C(C)(c1ccc(C(C)(C)C)c(F)c1)C(=O)N2c1cccc(C(=O)O)c1 (stereo not shown) | +++ (100 nM > A2)
CC(C)(C)c1ccc(C2(C)C(=O)N(c3cccc(C(=O)O)c3)c3cc(Cl)ccc32)cc1F (stereo not shown) | + (20000 nM ≥ A2 ≥ 500 nM)
CC(C)Oc1ccc(C2(C)C(=O)N(c3ccc(C(=O)O)cc3)c3ccc(Cl)cc32)cc1 (stereo not shown) | +++ (100 nM > A2)
CC(C)(C)c1ccc(C2(C)C(=O)N(c3ccc(C(=O)O)c(F)c3)c3ccc(Cl)cc32)cc1 (stereo not shown) | ++ (500 nM > A2 ≥ 100 nM)
CC(C)(C)c1ccc(C2(C)C(=O)N(c3cc(F)cc(C(=O)O)c3)c3ccc(Cl)cc32)cc1 (stereo not shown) | +++ (100 nM > A2)
Cc1ccc2c(c1)N(c1cccc(C(=O)O)c1)C(=O)C2(C)c1ccc(C(C)(C)C)c(F)c1 (stereo not shown) | ++ (500 nM > A2 ≥ 100 nM)
Cc1ccc2c(c1)N(c1cccc(C(=O)O)c1)C(=O)C2(C)c1ccc(C(C)(C)C)cc1 (stereo not shown) | ++ (500 nM > A2 ≥ 100 nM)
CC(C)(C)c1ccc(C2(C)C(=O)N(c3cc(C(=O)O)ccc3F)c3ccc(Cl)cc32)cc1 (stereo not shown) | ++ (500 nM > A2 ≥ 100 nM)
CC(C)(C)c1ccc(C2(C)C(=O)N(c3ccnc(C(=O)O)c3)c3ccc(Cl)cc32)cc1 (stereo not shown) | ++ (500 nM > A2 ≥ 100 nM)
CC(C)(C)c1ccc(C2(C)C(=O)N(c3cncc(C(=O)O)c3)c3ccc(Cl)cc32)cc1 (stereo not shown) | ++ (500 nM > A2 ≥ 100 nM)
CC(C)(C)c1ccc(C2(C)C(=O)N(c3cc(C(=O)O)ccn3)c3ccc(Cl)cc32)cc1 (stereo not shown) | +++ (100 nM > A2)
CC(C)(C)c1ccc(C2(C)C(=O)N(c3cccc(C(=O)O)n3)c3ccc(Cl)cc32)cc1 (stereo not shown) | ++ (500 nM > A2 ≥ 100 nM)
CC1(c2ccc(Cl)cc2)C(=O)N(c2cccc(C(=O)O)c2)c2ccc(Cl)cc21 (stereo not shown) | + (20000 nM ≥ A2 ≥ 500 nM)
COc1ccc(C2(C)C(=O)N(c3cccc(C(=O)O)c3)c3ccc(Cl)cc32)cc1F (stereo not shown) | + (20000 nM ≥ A2 ≥ 500 nM)
CC(C)(O)c1ccc(C2(C)C(=O)N(c3cccc(C(=O)O)c3)c3ccc(Cl)cc32)cc1 (stereo not shown) | ++ (500 nM > A2 ≥ 100 nM)
CC(C)(C)c1ccc(C2(C)C(=O)N(c3ccc(C(=O)O)cc3F)c3ccc(Cl)cc32)cc1 (stereo not shown) | ++ (500 nM > A2 ≥ 100 nM)
CC(C)(C)c1ccc(C2(C)C(=O)N(c3cccc(C(=O)O)c3F)c3ccc(Cl)cc32)cc1 (stereo not shown) | +++ (100 nM > A2)
CC(C)(F)c1ccc(C2(C)C(=O)N(c3cccc(C(=O)O)c3)c3ccc(Cl)cc32)cc1 (stereo not shown) | ++ (500 nM > A2 ≥ 100 nM)

Structure (SMILES) | Chemotaxis A2
CC1(c2ccc(C(C)(O)C(F)(F)F)cc2)C(=O)N(c2cccc(C(=O)O)c2)c2ccc(Cl)cc21 (stereo not shown) | ++ (500 nM > A2 ≥ 100 nM)
CC(C)(C)c1ccc(C2(C)C(=O)N(c3cccc(C(=O)O)c3)c3ccc(OC(F)(F)F)cc32)cc1 (stereo not shown) | +++ (100 nM > A2)
CC1(c2ccc(C3(C(F)(F)F)CC3)cc2)C(=O)N(c2cccc(C(=O)O)c2)c2ccc(Cl)cc21 (stereo not shown) | +++ (100 nM > A2)
CC1(c2ccc(C3(C#N)CC3)cc2)C(=O)N(c2cccc(C(=O)O)c2)c2ccc(Cl)cc21 (stereo not shown) | ++ (500 nM > A2 ≥ 100 nM)
CC1(c2ccc(C3(C)C(=O)N(c4cccc(C(=O)O)c4)c4ccc(Cl)cc43)cc2)CC1 (stereo not shown) | +++ (100 nM > A2)
Cc1cc(C2(C)C(=O)N(c3cccc(C(=O)O)c3)c3ccc(Cl)cc32)ccc1OC(C)C (stereo not shown) | ++ (500 nM > A2 ≥ 100 nM)
CC1(c2ccc(C(C)(C)C(C)(F)F)cc2)C(=O)N(c2cccc(C(=O)O)c2)c2ccc(Cl)cc21 (stereo not shown) | + (20000 nM ≥ A2 ≥ 500 nM)
CC1(C)CCc2cc(C3(C)C(=O)N(c4cccc(C(=O)O)c4)c4ccc(OC(F)(F)F)cc43)ccc2O1 (stereo not shown) | +++ (100 nM > A2)
CC1(C)CCc2cc(C3(C)C(=O)N(c4cccc(C(=O)O)c4)c4ccc(C#N)cc43)ccc2O1 (stereo not shown) | +++ (100 nM > A2)
CC1(C)CCc2cc(C3(C)C(=O)N(c4cccc(C(=O)O)c4)c4ccc(C5CC5)cc43)ccc2O1 (stereo not shown) | +++ (100 nM > A2)
CCc1ccc2c(c1)C(C)(c1ccc3c(c1)CCC(C)(C)O3)C(=O)N2c1cccc(C(=O)O)c1 (stereo not shown) | +++ (100 nM > A2)
CC1(C)Cc2cc(C3(C)C(=O)N(c4cccc(C(=O)O)c4)c4ccc(Cl)cc43)ccc2O1 (stereo not shown) | +++ (100 nM > A2)
Cc1cc(C2(C)C(=O)N(c3cccc(C(=O)O)c3)c3ccc(Cl)cc32)ccc1C(C)(C)C (stereo not shown) | ++ (500 nM > A2 ≥ 100 nM)
CC1(C)CCc2cc(C3(C)C(=O)N(c4cccc(C(=O)O)c4)c4cc(Cl)c(OC(F)(F)F)cc43)ccc2O1 (stereo not shown) | +++ (100 nM > A2)
CC1(C)CCc2cc(C3(C)C(=O)N(c4cccc(C(=O)O)c4)c4cc(Cl)c(Cl)cc43)ccc2O1 (stereo not shown) | +++ (100 nM > A2)
COc1ccc(C(=O)O)c(CN2C(=O)[C@@](C)(c3ccc4c(c3)CCC(C)(C)O4)c3cc(Cl)ccc32)c1 | +++ (100 nM > A2)
CC1(C)CCc2cc([C@]3(C)C(=O)N(c4cc(C#N)cc(C(=O)O)c4)c4ccc(Cl)cc43)ccc2O1 | ++ (500 nM > A2 ≥ 100 nM)
COc1c(C)cc(N2C(=O)[C@@](C)(c3ccc4c(c3)CCC(C)(C)O4)c3cc(Cl)ccc32)cc1C(=O)O | +++ (100 nM > A2)
CC1(C)CCc2cc(C3(C)C(=O)N(c4ccc(CC(=O)O)cc4)c4ccc(Cl)cc43)ccc2O1 (stereo in doubt) [2-[4-[(3R)-5-chloro-3-(2,2-dimethylchroman-6-yl)-3-methyl-2-oxo-indolin-1-yl]phenyl]acetic acid] | +++ (100 nM > A2)
CC(C)(C)c1ccc(C2(C)C(=O)N(c3cccc(C(=O)O)c3)c3ccc(Cl)cc32)cc1 (stereo in doubt) [3-[(3R)-3-(4-tert-butylphenyl)-5-chloro-3-methyl-2-oxo-indolin-1-yl]benzoic acid] | +++ (100 nM > A2)
CC1(C)CCc2cc(C3(C)C(=O)N(c4cccc(C(=O)O)c4)c4ccc(Cl)cc43)ccc2O1 (stereo in doubt) [3-[(3R)-5-chloro-3-(2,2-dimethylchroman-6-yl)-3-methyl-2-oxo-indolin-1-yl]benzoic acid] | +++ (100 nM > A2)
CC1(C)CCc2cc(C3(C)C(=O)N(Cc4ccc(C(=O)O)cc4)c4ccc(Cl)cc43)ccc2O1 (stereo in doubt) [4-[[(3R)-5-chloro-3-(2,2-dimethylchroman-6-yl)-3-methyl-2-oxo-indolin-1-yl]methyl]benzoic acid] | +++ (100 nM > A2)
Cc1ccc2c(c1)C(C)(c1ccc3c(c1)CCC(C)(C)O3)C(=O)N2c1ccc(C)c(C(=O)O)c1 (stereo in doubt) [5-[(3R)-3-(2,2-dimethylchroman-6-yl)-3,5-dimethyl-2-oxo-indolin-1-yl]-2-methyl-benzoic acid] | +++ (100 nM > A2)
COc1ccc(N2C(=O)C(C)(c3ccc4c(c3)CCC(C)(C)O4)c3cc(Cl)ccc32)cc1C(=O)O (stereo in doubt) [5-[(3R)-5-chloro-3-(2,2-dimethylchroman-6-yl)-3-methyl-2-oxo-indolin-1-yl]-2-methoxy-benzoic acid] | +++ (100 nM > A2)
